Counter-ions that a name gives are not always drawn. Like-named read-outs stand apart in the source and are kept apart here.
Legend:
[1] = system: NCI-H292 lung cancer cells; assay: FDA drug screening, complete media vs cholesterol-free media without statin (TABLE 1); type: cell-based, human
[2] = system: NCI-H292 lung cancer cells; assay: FDA drug screening, complete media vs cholesterol-free media with simvastatin (TABLE 2); type: cell-based, human
[3] = NCI-H292 cells, cholesterol-free media without statin
[4] = complete vs cholesterol-free media, greater than 0 enhanced anti-cancer activity, about 0 neutral, below 0 antagonists
[5] = NCI-H292 cells, cholesterol-free media with simvastatin 0.04 μM, cell growth value in FDA drug screen
[6] = NCI-H292 cells, complete media, cell growth value in FDA drug screen
[7] = complete media minus cholesterol-free media + simvastatin, >0 enhanced anti-cancer activity, about 0 neutral, <0 antagonist
[8] = Complete minus Cholesterol-free, >0 enhanced anti-cancer activity, about 0 neutral, <0 antagonist
[9] = NCI-H292 cells, cholesterol-free media without statin, FDA drug library screen
[10] = NCI-H292 cells, complete media, FDA drug library screen
[11] = NCI-H292 cells, drug in cholesterol-free media with simvastatin 0.04 μM
[12] = NCI-H292 cells, drug in complete media
[13] = complete media vs cholesterol-free media + simvastatin (0.04 μM), >0 enhanced anti-cancer activity, about 0 neutral, <0 antagonist
[14] = NCI-H292 cells, cholesterol-free media with simvastatin 0.04 μM, FDA drug library screen (TABLE 2)
[15] = NCI-H292 cells, complete media, FDA drug library screen (TABLE 2)
[16] = complete media minus cholesterol-free media + simvastatin (0.04 μM), >0 enhanced anti-cancer activity, about 0 neutral, <0 antagonist
[17] = complete vs cholesterol-free media, >0 enhanced anti-cancer activity, about 0 neutral, <0 antagonist
[18] = NCI-H292 cells, FDA drug library screen, cholesterol-free media with simvastatin 0.04 μM
[19] = NCI-H292 cells, FDA drug library screen, complete media
[20] = Complete minus Cholesterol-free, […]
[21] = Complete minus Cholesterol-free, greater than 0 enhanced anti-cancer activity, about 0 neutral, below 0 antagonists
[22] = NCI-H292 cells in cholesterol-free media without statin
[23] = NCI-H292 cells in complete media

Row | Molecule | Cholesterol-free [1, 3] | Complete ([1]; NCI-H292 cells, complete media) | Difference [2, 7] | Difference [1, 8] | Cholesterol-free [1, 9] | Complete [1, 10] | Difference [2, 13] | Cholesterol-free media + simvastatin (0.04 μM) [2, 18] | Complete Media [2, 19] | also measured
1 | O=C1c2c(O)cccc2Cc2cccc(O)c21 [Dithranol] | 1.314 | 0.9897 | 0.08 |  |  |  |  |  |  | Difference [1, 4]: −0.32; Cholesterol-free media + simvastatin (0.04 μM) [2, 5]: 0.8476; Complete Media [2, 6]: 0.9249
2 | O=C(O)[C@H]1O[C@@H](Oc2cc3oc(-c4ccccc4)cc(=O)c3c(O)c2O)[C@H](O)[C@@H](O)[C@@H]1O [Baicalin] |  |  |  | −0.04 | 1.064 | 1.025 | −0.20 |  |  | Cholesterol-free media + simvastatin (0.04 μM) [2, 11]: 1.298; Complete Media [2, 12]: 1.093
3 | Cc1nccn1CC1CCc2c(c3ccccc3n2C)C1=O (centres unmarked) [Ondansetron] |  |  |  | −0.05 | 1.168 | 1.123 |  |  |  | Cholesterol-free media + simvastatin (0.04 μM) [2, 14]: 1.019; Complete Media [2, 15]: 0.948; Difference [2, 16]: −0.07
4 | NC(=O)C(c1ccccc1)(c1ccccc1)[C@@H]1CCN(CCc2ccc3c(c2)CCO3)C1 (racemic) [(±)-Darifenacin] |  |  |  |  | 1.009 | 1.18 | −0.10 | 0.9772 | 0.8726 | Difference [1, 17]: 0.17
5 | CCCCOc1ccc(CC(=O)NO)cc1 [Bufexamac] |  |  | 0.56 |  | 1.346 | 1.459 |  | 1.029 | 1.594 | Difference [1, 17]: 0.11
6 | c1ccc(-c2ccc(C(c3ccccc3)n3ccnc3)cc2)cc1 (centres unmarked) [Bifonazole] | 1.572 | 1.228 | 0.35 |  |  |  |  | 0.4379 | 0.7844 | Difference [1, 4]: −0.34
7 | COc1ccc2c(O[C@@H]3C[C@H]4C(=O)N[C@]5(C(=O)NS(=O)(=O)C6CC6)C[C@H]5/C=C\CCCCN(C)C(=O)[C@@H]4C3)cc(-c3nc(C(C)C)cs3)nc2c1C [Simeprevir] |  |  |  |  | 0.5666 | 0.795 | −0.09 | 0.845 | 0.7552 | Difference [1, 17]: 0.23
8 | COc1ccc(CN=c2[nH]c(N3CCC[C@H]3CO)ncc2C(=O)NCc2ncccn2)cc1Cl [Avanafil] | 0.9577 | 0.6848 |  | −0.27 |  |  | −0.21 |  |  | Cholesterol-free media + simvastatin (0.04 μM) [2, 11]: 1.12; Complete Media [2, 12]: 0.9091
9 | Osimertinib (dimesylate) |  |  |  |  | 0.1916 | 0.1371 |  | 0.4427 | 0.3618 | Difference [1, 20]: −0.05; Difference ([2]; complete media vs cholesterol-free media + simvastatin (0.04 μM), […]): −0.08
10 | O=C(O)c1cc(=O)[nH]c(=O)[nH]1 [Orotic acid] | 1.001 | 0.7657 | 0.07 | −0.23 |  |  |  |  |  | Cholesterol-free media + simvastatin (0.04 μM) [2, 5]: 1.191; Complete Media [2, 6]: 1.261
11 | CO[C@H]1/C=C/O[C@@]2(C)Oc3c(C)c(O)c4c(O)c(c(/C=N/N5CCN(C6CCCC6)CC5)c(O)c4c3C2=O)NC(=O)/C(C)=C\C=C\[C@H](C)[C@H](O)[C@@H](C)[C@@H](O)[C@@H](C)[C@H](OC(C)=O)[C@@H]1C [Rifapentine] |  |  | 0.36 | −0.06 | 1.056 | 0.9967 |  | 1.582 | 1.938 | 
12 | Cc1[nH]c(=O)c(C#N)cc1-c1ccc2nccn2c1 [Olprinone (Hydrochloride)] | 1.142 | 0.8745 |  | −0.27 |  |  |  |  |  | Cholesterol-free media + simvastatin (0.04 μM) [2, 14]: 1.653; Complete Media [2, 15]: 1.64; Difference [2, 16]: −0.01
13 | COC(=O)[C@@H]1[C@H]2C[C@H]3c4[nH]c5ccccc5c4CCN3C[C@@H]2CC[C@@H]1O [Yohimbine (Hydrochloride)] |  |  | 0.02 |  |  |  |  |  |  | Difference [1, 21]: −0.74; Cholesterol-free [1, 22]: 1.558; Complete [1, 23]: 0.818; Cholesterol-free media + simvastatin (0.04 μM) [2, 5]: 1.051; Complete Media [2, 6]: 1.067
14 | O=S(=O)(O)CCS [Mesna] | 1.145 | 0.8536 |  | −0.29 |  |  | −0.10 | 1.227 | 1.122 | 
15 | CCN(CC)CC(=O)Nc1c(C)cccc1C [Lidocaine (hydrochloride)] | 1.21 | 0.9883 |  | −0.22 |  |  |  |  |  | Cholesterol-free media + simvastatin (0.04 μM) [2, 14]: 0.8862; Complete Media [2, 15]: 0.8646; Difference [2, 16]: −0.02
16 | C=CCCCCCCCCC(=O)O [10-Undecenoic acid] |  |  |  | 0.01 | 0.9796 | 0.99 | −0.30 |  |  | Cholesterol-free media + simvastatin (0.04 μM) ([2]; NCI-H292 cells, FDA library drug in cholesterol-free media with simvastatin 0.04 μM): 1.07; Complete Media ([2]; NCI-H292 cells, FDA library drug in complete media): 0.7648
17 | CC(=O)c1ccc2c(c1)N(CCCN1CCC(CCO)CC1)c1ccccc1S2 [Piperacetazine] |  |  |  |  |  |  | −0.15 | 1.088 | 0.9352 | Difference [1, 21]: −0.82; Cholesterol-free [1, 22]: 1.769; Complete [1, 23]: 0.9455
18 | Carbasalate calcium | 1.087 | 0.8754 |  |  |  |  |  |  |  | Difference [1, 20]: −0.21; Complete Media ([2]; NCI-H292 cells, complete media, […]): 1.129; Difference ([2]; complete media minus cholesterol-free media + simvastatin, […]): 0.02
19 | CC(=O)OCC1=C(C(=O)O)N2C(=O)[C@@H](NC(=O)CSc3ccncc3)[C@H]2SC1 [Cephapirin (sodium)] |  |  |  |  |  |  |  |  |  | Cholesterol-free [1]: 0.9897; Complete [1]: 1.131; Difference [1]: 0.14; Cholesterol-free media + simvastatin (0.04 μM) [2]: 2.472; Complete Media [2]: 1.209; Difference [2]: −1.26
20 | O=C([O-])CCCc1ccccc1.[Na+] [Sodium 4-phenylbutyrate] |  |  |  |  | 0.7629 | 1.099 | −0.19 |  |  | Difference [1, 17]: 0.34; Cholesterol-free media + simvastatin (0.04 μM) [2, 11]: 1.094; Complete Media [2, 12]: 0.9051
21 | Doxylamine (succinate) | 1.101 | 0.8034 | 0.07 | −0.30 |  |  |  |  |  | Cholesterol-free media + simvastatin (0.04 μM) [2, 5]: 1.024; Complete Media [2, 6]: 1.092
22 | Cc1ccc(Cl)c(Nc2ccccc2C(=O)O)c1Cl [Meclofenamate (sodium)] |  |  | 0.71 |  |  |  |  | 1.009 | 1.718 | Difference [1, 21]: −0.59; Cholesterol-free [1, 22]: 1.453; Complete [1, 23]: 0.8579
23 | C/C=C(/C(=C/C)c1ccc(O)cc1)c1ccc(O)cc1 [Dienestrol] |  |  | 0.13 |  | 0.6505 | 1.078 |  |  |  | Difference [1, 17]: 0.43; Cholesterol-free media + simvastatin (0.04 μM) [2, 5]: 0.8618; Complete Media [2, 6]: 0.9909
